For series [1], the system named is GIST-882 cells. Put plainly: Cell cycle distribution by flow cytometry, GIST-882. As to conditions: GIST-882, treated 48 hours. It is filed as cell-based, human. A general note: Flow cytometry measures light scatter and fluorescence of single cells or particles in a stream.
The test system of series [2] is Tel-PDGFRβ-BaF3 cells (PDGFRβ). Put plainly: Cell proliferation, CCK-8, Tel-PDGFRβ-BaF3. It is filed as cell-based. The note with it: Mus musculus, 72 hours. The text has this:
(§1) In addition, in the present example, further uses: mouse P210/BaF3 (stably expressing P210 Bcr-Abl mutant gene), mouse Tel-ABL-BaF3 (stably expressing wild-type ABL kinase), mouse Tel-cKit-BaF3 (stably expressing C-KITwild-type kinase), mouse Tel-cKit/V559D-BaF3 (stably expressing C-KIT V559D mutant kinase), mouse Tel-cKit/V559D/V654A-BaF3 (stably expressing C-KIT V559D/V654A mutant kinase), mouse Tel-cKit/N822K-BaF3 (stably expressing C-KIT N822K mutant kinase), mouse Tel-cKit/V654A-BaF3 (stably expressing C-KIT V654A mutant kinase), mouse Tel-cKit/L567P-BaF3 (stably expressing C-KIT L567P mutant kinase), mouse Tel-cKit/T670I-BaF3 (stably expressing C-KIT T670I mutant kinase), mouse Tel-PDGFRα-BaF3 (stably expressing PDGFRα kinase), mouse Tel-PDGFRβ-BaF3 (stably expressing PDGFRβ kinase), mouse Tel-VEGFR2-BaF3 (stably expressing VEGFR2 kinase), mouse Tel-RET-BaF3 (stably expressing RET kinase). The above cell lines were all constructed by our laboratory according to the following method: the kinase region sequences of human P210 Bcr-Abl, ABL, C-KIT, C-KIT V559D, C-KIT V559D/V654A, C-KIT N822K, C-KIT V654A, C-KIT L567P, C-KIT T670I, PDGFRα, PDGFRβ, VEGFR2, RET were amplified respectively by PCR, inserted respectively into MSCV-Puro vectors harboring N-terminal TEL fragment and/or NPM fragment and/or TPR fragment (Clontech), then the vectors were stably transfected into mouse BaF3 cells by retrovirus methods and growth factor IL-3 was removed, eventually obtaining cell lines that are transferred protein (P210 Bcr-Abl, ABL, C-KIT, C-KIT V559D, C-KIT V559D/V654A, C-KIT N822K, C-KIT V654A, C-KIT L567P, C-KIT T670I, PDGFRα, PDGFRβ, VEGFR2, RET)-dependent.
(§2) The cells were incubated for 72 hours, and then the number of viable cells was quantified with a microplate reader by using CCK-8 Cell Viability Assay Kit (purchased from Bestbio Company, Shanghai, China) (CCK-8 can be reduced by dehydrogenase in living cells to a highly water-soluble yellow formazan product, and the amount of formazan produced is proportional to the number of living cells).

The test system of series [3] is Tel-ABL-BaF3 cells (ABL WT). Put plainly: Cell proliferation, CCK-8, Tel-ABL-BaF3. As to conditions: Mus musculus; Tel-ABL-BaF3, ABL WT, 72 hours, CCK-8; read-out: GI50. Type of series: cell-based.
Source text: In addition, in the present example, further uses: mouse P210/BaF3 (stably expressing P210 Bcr-Abl mutant gene), mouse Tel-ABL-BaF3 (stably expressing wild-type ABL kinase), mouse Tel-cKit-BaF3 (stably expressing C-KITwild-type kinase), mouse Tel-cKit/V559D-BaF3 (stably expressing C-KIT V559D mutant kinase), mouse Tel-cKit/V559D/V654A-BaF3 (stably expressing C-KIT V559D/V654A mutant kinase), mouse Tel-cKit/N822K-BaF3 (stably expressing C-KIT N822K mutant kinase), mouse Tel-cKit/V654A-BaF3 (stably expressing C-KIT V654A mutant kinase), mouse Tel-cKit/L567P-BaF3 (stably expressing C-KIT L567P mutant kinase), mouse Tel-cKit/T670I-BaF3 (stably expressing C-KIT T670I mutant kinase), mouse Tel-PDGFRα-BaF3 (stably expressing PDGFRα kinase), mouse Tel-PDGFRβ-BaF3 (stably expressing PDGFRβ kinase), mouse Tel-VEGFR2-BaF3 (stably expressing VEGFR2 kinase), mouse Tel-RET-BaF3 (stably expressing RET kinase). […]
as §2

For a further series, the system named is Ku812 cells (Bcr-Abl). Kind of series: Cancer cell proliferation, CCK-8, Ku812. The note with it: Homo sapiens; Ku812, Bcr-Abl, 72 hours, CCK-8; read-out: GI50. Type of series: cell-based.
Source text: (§3) In the present example, the following cells were used: chronic myelogenous leukemia cells K562 (expressing P210 Bcr-Abl mutant gene), human megakaryocytic leukemia cells MEG-01 (expressing P210 Bcr-Abl mutant gene), human peripheral blood basophilic leukemia cells Ku812 (expressing Bcr-Abl mutant gene) (all above cells purchased from ATCC, USA), human gastrointestinal stromal tumor cell lines GIST-T1 cells (expressing wild-type C-KIT gene) (purchased from Cosmo Bio Co., Ltd., Japan), human gastrointestinal stromal tumor cell lines GIST-882 cells (expressing wild-type C-KIT gene) (presented by the Professor Gray Lab, Dana-Farber Cancer Institute, Harvard University, USA), mouse pro-B cells BaF3 (purchased from ATCC, USA).
as §2

For series [4], the system named is Tel-cKit/T670I-BaF3 cells (KIT T670I). Kind of series: Cell proliferation, CCK-8, Tel-cKit/T670I-BaF3. Type of series: cell-based. The note with it: Mus musculus, 72 hours.
Source text: as §1, §2

The test system of series [5] is Tel-VEGFR2-BaF3 cells (VEGFR2). Put plainly: Cell proliferation, CCK-8, Tel-VEGFR2-BaF3. Type of series: cell-based. The note with it: Mus musculus, Tel-VEGFR2-BaF3, VEGFR2, 72 hours.
Source text: as §1, §2

Series [6] has as its system Tel-PDGFRα-BaF3 cells (PDGFRα). Put plainly: Cell proliferation, CCK-8, Tel-PDGFRα-BaF3. As to conditions: Mus musculus, 72 hours. It is filed as cell-based.
Source text: as §1, §2

Series [7] concerns Tel-cKit/N822K-BaF3 cells (KIT N822K). Put plainly: Cell proliferation, CCK-8, Tel-cKit/N822K-BaF3. It is filed as cell-based. The note with it: Mus musculus, 72 hours.
Source text: as §1, §2

In series [8] the test system is gastrointestinal stromal tumor cell lines GIST-T1. Kind of series: Mouse tumor model of GIST-T1 cells. Type of series: in vivo. As to conditions: for tumor inhibition rate: Day 28 after administration. The protocol: 1. 4-6 week-old Bal b/c female mice were purchased from Shanghai SLAC Experimental Animal Co., Ltd., and were raised in a SPF-level laboratory. Drinking water and padding were both subjected to aseptic processing via high-pressure disinfection, and all operations of the mice were conducted under aseptic conditions;
2. About 5×10^6 gastrointestinal stromal tumor cell lines GIST-T1 or GIST-882 (purchased from ATCC) were respectively injected subcutaneously at left side back of all mice at Day 0;
5. Mice were sacrificed on Day 36 (for GIST-882 mouse model) or Day 43 (GIST-T1 mouse model) and subcutaneous tumors were taken out and weighed for comparison;
6. Tumor tissue specimens were prepared into protein lysate samples for further usage;
7. Growth trend of subcutaneous tumors from Day 16 to Day 43 was derived, and tumor volume was calculated as length×width×width/2 mm^3.

Series [9] has as its system phosphorylation of C-KIT and pathway proteins in GIST-882 cells. Put plainly: Effects on cell signaling pathways (phosphorylation), GIST-882. Type of series: cell-based, human. As to conditions: GIST-882, 0.1 μM, 2 hours.
The test system of series [10] is cells expressing wild-type C-KIT kinase. Put plainly: Cell proliferation, C-KIT cells. It is filed as cell-based. The note with it: cells expressing wild-type C-KIT kinase, summary of Table 2.
Source text: as §3, §1, §2

A further series deals with GIST-T1 cells. Put plainly: Cell cycle distribution by flow cytometry, GIST-T1. It is filed as cell-based, human. As to conditions: GIST-T1, treated 24 hours.
For series [11], the system named is GIST-882 cells. Kind of series: Apoptosis, PARP and Caspase 3 cleavage by Western Blot, GIST-882. It is filed as cell-based, human. The note with it: GIST-882, 0.3 μM, 72 hours. The text has this: The effects of different concentrations of drugs on protein cleavage of DNA repairase poly(ADP-ribose) polymerase (PARP) and Caspase (cysteinyl aspartate-specific proteinase) 3 at different periods of time were examined by Western Blot.
A general note: A western blot detects proteins with antibodies after separation by electrophoresis.

For series [12], the system named is K562 cells (P210 Bcr-Abl). Put plainly: Cancer cell proliferation, CCK-8, K562. It is filed as cell-based. As to conditions: Homo sapiens; K562, P210 Bcr-Abl, 72 hours, CCK-8; read-out: GI50.
Source text: as §3, §2

The source of these data is patent US10793543B2, “Selective C-KIT kinase inhibitor” (PRECEDO PHARMACEUTICALS CO., LTD, priority 2016, dated 2020).

The GI50 is the concentration that inhibits growth by half. For `Cc1ccc(NC(=O)c2cccc(C(F)(F)F)c2)cc1OC1CCN(C(=O)c2ccncc2)CC1` [Compound 4], the “effect on cell cycle” value in the series on GIST-882 cells [1] and in the series with GIST-T1 cells was “significantly blocked in the GO-G1 phase” each time. Moreover, the GI50 worked out at 27 nM in [2]; 5060 nM in series [3]; 6710 nM in the series with Ku812 cells (Bcr-Abl); 5310 nM in series [4]; 347 nM in [5]; 38 nM in series [6]. Further, the results for the GI50 in series [7], in [10] and in [12] were 940 nM, below 500 nM and above 10000 nM, respectively. Also, the “inhibitory effect on mouse tumors” value in series [8] (25 mg/kg oral daily, Day 4 after administration) is given as “certain inhibitory effect”. For the same compound, the tumor inhibition rate in series [8] (50 mg/kg oral daily) is recorded as 65.3%; in series [8] (100 mg/kg oral daily), 73.8%. Further, in [8] (oral daily dosing), the “effect on body weight of mice” value is “no effect on the body weight of mice”. The “phosphorylation of C-KIT oncogenic protein” value in series [9] is on record as “significantly inhibiting”. Further, in series [9], the “phosphorylation of proteins such as Stat5, AKT, ErK, S6K, S6, PDGFRα” value is recorded as “significant inhibitory effects”. In the series with GIST-882 cells [11], the “cleavage of PARP and Caspase 3” value is listed as “significant cleavage”.
